Data: patent publication US20090117127A1, “Novel Compounds and Methods for Their Production” (priority 2006, published 2009)

What was measured:
[1] = tested on: CXF HT29; test: monolayer proliferation assay, modified propidium iodide assay; type: cell-based, human; conditions: CXF HT29 (colon), 4 days continuous exposure
Protocol: (§1) In vitro evaluation of compounds for anticancer activity in a panel of human tumour cell lines in a monolayer proliferation assay was carried out at the Oncotest Testing Facility, Institute for Experimental Oncology, Oncotest GmbH, Freiburg.
(§2) The Oncotest cell lines are established from human tumor xenografts as described by Roth et al., (1999). The origin of the donor xenografts was described by Fiebig et al., (1999). Other cell lines are either obtained from the NCI (DU145, MCF-7) or purchased from DSMZ, Braunschweig, Germany.
(§3) All cell lines, unless otherwise specified, were grown at 37° C. in a humidified atmosphere (95% air, 5% CO2) in a ‘ready-mix’ medium containing RPMI 1640 medium, 10% fetal calf serum, and 0.1 mg/mL gentamicin (PAA, Cölbe, Germany).
(§4) A modified propidium iodide assay was used to assess the effects of the test compound(s) on the growth of human tumour cell lines (Dengler et al., (1995)).
(§5) Briefly, cells were harvested from exponential phase cultures by trypsinization, counted and plated in 96 well flat-bottomed microtitre plates at a cell density dependent on the cell line (5-10.000 viable cells/well). After 24 h recovery to allow the cells to resume exponential growth, 0.010 mL of culture medium (6 control wells per plate) or culture medium containing the 11-O-desmethylmacbecin analogue were added to the wells. Each concentration was plated in triplicate. Compounds were applied in two concentrations (1 μg/mL and 10 μg/mL). Following 4 days of continuous exposure, cell culture medium with or without test compound was replaced by 0.2 mL of an aqueous propidium iodide (PI) solution (7 mg/L). To measure the proportion of living cells, cells were permeabilized by freezing the plates. After thawing the plates, fluorescence was measured using the Cytofluor 4000 microplate reader (excitation 530 nm, emission 620 nm), giving a direct relationship to the total number of viable cells. Growth inhibition was expressed as treated/control×100 (% T/C).
(§6) In vitro evaluation of the test compounds for anticancer activity in a panel of human tumour cell lines in a monolayer proliferation assay was carried out as described in the general methods using a modified propidium iodide assay.

[2] = tested on: LXF 1121L; test: as above; type: cell-based, human; conditions: LXF 1121L (lung, large cell ca), 4 days continuous exposure
Protocol: as §1, §2, §3, §4, §5, §6

[3] = tested on: MEXF 394NL; test: as above; type: cell-based, human; conditions: MEXF 394NL (melanoma), 4 days continuous exposure
Protocol: as §1, §2, §3, §4, §5, §6

[4] = tested on: MCF-7; test: as above; type: cell-based, human; conditions: MCF-7 (breast), 4 days continuous exposure
Protocol: as §1, §2, §3, §4, §5, §6

[5] = tested on: CNXF 498NL; test: as above; type: cell-based, human; conditions: CNXF 498NL (CNS), 4 days continuous exposure
Protocol: as §1, §2, §3, §4, §5, §6

[6] = tested on: DU145; test: as above; type: cell-based, human; conditions: DU145 (prostate, PTEN positive), 4 days continuous exposure
Protocol: as §1, §2, §3, §4, §5, §6

[7] = molecular target: Hsp90 (Homo sapiens, UniProt P07900); conditions: cited from earlier work
[8] = tested on: Reverse transcriptase; conditions: cited from earlier work
[9] = molecular target: terminal deoxynucleotidyl transferase (Homo sapiens, UniProt P04053); conditions: cited from earlier work
Chain of terminal deoxynucleotidyl transferase (P04053 whole entry, species assumed): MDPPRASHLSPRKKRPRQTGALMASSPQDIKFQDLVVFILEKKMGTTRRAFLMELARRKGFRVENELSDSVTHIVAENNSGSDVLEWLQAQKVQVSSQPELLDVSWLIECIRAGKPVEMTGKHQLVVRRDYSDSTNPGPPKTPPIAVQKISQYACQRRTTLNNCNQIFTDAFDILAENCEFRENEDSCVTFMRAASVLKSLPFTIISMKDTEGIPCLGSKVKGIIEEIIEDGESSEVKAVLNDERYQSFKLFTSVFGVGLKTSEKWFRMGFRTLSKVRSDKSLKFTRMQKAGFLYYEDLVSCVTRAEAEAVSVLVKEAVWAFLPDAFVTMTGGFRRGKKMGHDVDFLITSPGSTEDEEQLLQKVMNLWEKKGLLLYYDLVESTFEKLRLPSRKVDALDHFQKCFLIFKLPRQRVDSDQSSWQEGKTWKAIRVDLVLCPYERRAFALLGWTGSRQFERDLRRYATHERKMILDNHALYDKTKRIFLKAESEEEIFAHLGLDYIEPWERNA

SMILES | Test/Control (%) at drug concentration ([1]; 1 μg/mL) [%] | Test/Control (%) at drug concentration ([1]; 10 μg/mL) [%] | Test/Control (%) at drug concentration ([2]; 1 μg/mL) [%] | Test/Control (%) at drug concentration ([2]; 10 μg/mL) [%] | Test/Control (%) at drug concentration ([3]; 1 μg/mL) [%] | Test/Control (%) at drug concentration ([3]; 10 μg/mL) [%] | Test/Control (%) at drug concentration ([4]; 1 μg/mL) [%] | Test/Control (%) at drug concentration ([4]; 10 μg/mL) [%] | Test/Control (%) at drug concentration ([5]; 1 μg/mL) [%] | Test/Control (%) at drug concentration ([5]; 10 μg/mL) [%] | Test/Control (%) at drug concentration ([6]; 1 μg/mL) [%] | Test/Control (%) at drug concentration ([6]; 10 μg/mL) [%] | binding affinity to Hsp90, greater than 17-AAG ([7]; relative to 17-AAG) [fold] | binding affinity to Hsp90, greater than geldanamycin ([7]; relative to geldanamycin) [fold] | inhibition of reverse transcriptase activity [8] | inhibition of terminal deoxynucleotidyl transferase activity [9]
CO[C@H]1C[C@H](C)CC2=CC(=O)C=C(NC(=O)/C(C)=C/CC[C@H](C)[C@@H](OC(N)=O)/C(C)=C/[C@H](C)[C@H]1O)C2=O [compound 17, 4,5-dihydro-11-O-desmethyl-15-desmethoxymacbecin] | 52 | 6 | 55 | 17 | 38 | 4 | 35 | 5 | 35 | 8 | 18 | 5 | – | – | – | –
CO[C@H]1C[C@H](C)Cc2cc(O)cc(c2)NC(=O)/C=C/CC[C@H](OC)[C@@H](OC(N)=O)/C(C)=C/[C@H](C)[C@H]1O [KOSN1559] | – | – | – | – | – | – | – | – | – | – | – | – | 8 | 4 | – | –
CO[C@H]1C[C@H](C)CC2=CC(=O)C=C(NC(=O)/C(C)=C/C=C\[C@H](C)[C@@H](OC(N)=O)/C(C)=C/[C@H](C)[C@H]1O)C2=O [compound 15, 11-O-desmethyl-15-desmethoxymacbecin] | 37.7 | 9 | 57.7 | 11.7 | 22 | 5 | 49.3 | 13.7 | 30 | 9 | 16.3 | 6 | – | – | – | –
CO[C@H]1[C@@H](OC)C[C@H](C)[C@@H](OC)C2=CC(=O)C=C(NC(=O)/C(C)=C/C=C\[C@H](C)[C@@H](OC(N)=O)/C(C)=C/[C@@H]1C)C2=O [Macbecin, macbecin, reference compound] | 22 | 8 | 30 | 17 | 16 | 13 | 42 | 19 | 29 | 14 | 13 | 5 | – | – | not inhibited | not inhibited
CO[C@H]1C[C@H](C)[C@@H](O)C2=CC(=O)C=C(NC(=O)/C(C)=C/C=C\[C@H](C)[C@@H](OC(N)=O)/C(C)=C/[C@H](C)[C@H]1O)C2=O [compound 14, 11-O-desmethyl-15-O-desmethylmacbecin] | 88.7 | 55 | 83.3 | 57.7 | 50.7 | 77 | 83.7 | 58.7 | 82.7 | 45.3 | 78.7 | 35 | – | – | – | –
